Patent US20100292255A1, “Therapeutic Compounds and Their Use in Treating Diseases and Disorders” (Myriad Pharmaceuticals, Inc., priority 2007, published 2010)

Biological target: T1, purified human Hsp90
T1 construct: purified human Hsp90 (Stressgen, SPP-770)
Assay: Hsp90 binding assay: displacement of BODIPY-labeled geldanamycin measured by fluorescence polarization
Conditions: BODIPY-GM 10 nM, Hsp90 30 nM, overnight at room temperature; for IC50: read-out: GM displacement from purified Hsp90 measured by FP IC 50; for GM displacement from purified Hsp90 measured by FP Inhibition by 5 μM compd. (%): 5 μM compound
Procedure: Binding of the Example Compounds to purified Hsp90 was assayed by measuring the displacement of BODIPY-labeled geldanamycin (BODIPY-GM) from purified human Hsp90, using a fluorescence polarization assay adapted from Kim et al. (J. Biomolec. Screening, 9(5):375-381 (2004)). Compound dilutions (in 100% DMSO) were added to black-bottom 96-well plates (Greiner Bio-One, Monroe, N.C.) in 2% DMSO final, and equal volumes of BODIPY-GM (10 nM final) and purified human Hsp90 (Stressgen, SPP-770; 30 nM final) (Assay Designs, Ann Arbor, Mich.) in assay buffer (20 mM HEPES-KOH pH 7.3, 50 mM KCl, 5 mM MgCl2, 20 mM Na2MoO4, 0.01% NP-40, 0.1 mg/mL bovine gamma globulin [P2045; Invitrogen, Carlsbad, Calif.], 2 mM DTT) were added sequentially to yield a final volume of 50 microliters. Plates were incubated overnight at room temperature. Parallel and perpendicular fluorescence measurements were read (Analyst AD plate reader; LJL BioSystems, Middletown, Conn.) with excitation/emission wavelengths of 485/530 nm. Background fluorescence (buffer only) was subtracted, and fluorescence polarization (FP) values, expressed in mP units, were calculated from parallel and perpendicular fluorescence readings as follows:
FP=(parallel−perpendicular)/(parallel+perpendicular)*1000.
Percent inhibition was calculated by normalizing the FP values to those obtained in parallel reactions containing DMSO and subtracting these normalized values from 100%. Intrinsic compound fluorescence was independently monitored, and FP data points confounded by compound fluorescence were excluded from the analysis.

Structure (SMILES)	IC50	GM displacement from purified Hsp90 measured by FP Inhibition by 5 μM compd. (%)
Nc1ncnc2c1nc(Sc1cc3c(cc1Cl)OCO3)n2CCC1CCN(C(=O)CO)CC1 [Example Compound 205, 2-[4-(2-{6-Amino-8-[(6-chloro-1,3-benzodioxol-5-yl)thio]-9H-purin-9-yl}ethyl)piperidin-1-yl]-2-oxoethanol]	497 nM	–
C[C@H](O)C(=O)N1CCCC[C@@H]1CCn1c(Sc2cc3c(cc2Br)OCO3)nc2c(N)ncnc21 [Example Compound 206, (2S)-1-[(2R)-2-(2-{6-Amino-8-[(6-bromo-1,3-benzodioxol-5-yl)thio]-9H-purin-9-yl}ethyl)piperidin-1-yl]-1-oxopropan-2-ol]	> 5000 nM	–
C[C@H](O)C(=O)N1CCCC[C@H]1CCn1c(Sc2cc3c(cc2Br)OCO3)nc2c(N)ncnc21 [Example Compound 207, (2S)-1-[(2S)-2-(2-{6-Amino-8-[(6-bromo-1,3-benzodioxol-5-yl)thio]-9H-purin-9-yl}ethyl)piperidin-1-yl]-1-oxopropan-2-ol]	> 5000 nM	–
COc1cc(Br)c(Sc2nc3c(N)ncnc3n2CCC2CCN(C(=O)[C@H](C)O)CC2)cc1OC [Example Compound 208, (2S)-1-[4-(2-{6-Amino-8-[(2-bromo-4,5-dimethoxyphenyl)thio]-9H-purin-9-yl}ethyl)piperidin-1-yl]-1-oxopropan-2-ol]	> 5000 nM	–
C[C@H](O)C(=O)N1CCC(CCn2c(Sc3cc(O)c(O)cc3Br)nc3c(N)ncnc32)CC1 [Example Compound 209, 4-{[6-Amino-9-(2-{1-[(2S)-2-hydroxypropanoyl]piperidin-4-yl}ethyl)-9H-purin-8-yl]thio}-5-bromobenzene-1,2-diol]	2100 nM	–
Nc1ncnc2c1nc(Sc1cc3c(cc1Br)OCO3)n2C1CCNCC1 [Example Compound 211, 8-[(6-Bromo-1,3-benzodioxol-5-yl)thio]-9-piperidin-4-yl-9H-purin-6-amine]	950 nM	–
C[C@H](O)C(=O)N1CCC(n2c(Sc3cc4c(cc3Br)OCO4)nc3c(N)ncnc32)CC1 [Example Compound 212, (2S)-1-(4-{6-amino-8-[(6-bromo-1,3-benzodioxol-5-yl)thio]-9H-purin-9-yl}piperidin-1-yl)-1-oxopropan-2-ol]	350 nM	–
Nc1ncnc2c1nc(Sc1cc3c(cc1Br)OCO3)n2C1CCN(C=O)CC1 [Example Compound 213, 4-{6-Amino-8-[(6-bromo-1,3-benzodioxol-5-yl)thio]-9H-purin-9-yl}piperidine-1-carbaldehyde]	580 nM	–
N#Cc1cc2c(cc1Sc1nc3c(N)ncnc3n1CCC1CCN(C=O)CC1)CCC2=O [compound 1, 6-({6-Amino-9-[2-(1-formylpiperidin-4-yl)ethyl]-9H-purin-8-yl}thio)-3-oxoindane-5-carbonitrile]	230 nM	–
N#Cc1cc2c(cc1Sc1nc3c(N)ncn(CCC4CCN(C=O)CC4)c-3n1)CCC2=O [compound 2, 6-({6-amino-3-[2-(1-formylpiperidin-4-yl)ethyl]-3H-purin-8-yl}thio)-3-oxoindane-5-carbonitrile]	–	24.0%
COCCOCC(=O)N1CCC(CCn2c(Sc3cc4c(cc3Br)OCCO4)nc3c(N)ncnc32)CC1 [compound 3, 8-[(7-Bromo-2,3-dihydro-1,4-benzodioxin-6-yl)thio]-9-(2-{1-[(2-methoxyethoxy)acetyl]piperidin-4-yl}ethyl)-9H-purin-6-amine]	80 nM	–
CO[C@@H](C)C(=O)N1CCC(CCn2c(Sc3cc4c(cc3Br)OCCO4)nc3c(N)ncnc32)CC1 [compound 4, 8-[(7-Bromo-2,3-dihydro-1,4-benzodioxin-6-yl)thio]-9-(2-{1-[(2S)-2-methoxypropanoyl]piperidin-4-yl}ethyl)-9H-purin-6-amine]	80 nM	–
COCCC(=O)N1CCC(CCn2c(Sc3cc4c(cc3Br)OCCO4)nc3c(N)ncnc32)CC1 [compound 5, 8-[(7-Bromo-2,3-dihydro-1,4-benzodioxin-6-yl)thio]-9-{2-[1-(3-methoxypropanoyl)piperidin-4-yl]ethyl}-9H-purin-6-amine]	63 nM	–
COCC(=O)N1CCC(CCn2c(Sc3cc4c(cc3Br)OCCO4)nc3c(N)ncnc32)CC1 [compound 6, 8-[(7-Bromo-2,3-dihydro-1,4-benzodioxin-6-yl)thio]-9-{2-[1-(methoxyacetyl)piperidin-4-yl]ethyl}-9H-purin-6-amine]	70 nM	–
CO[C@H](C)C(=O)N1CCC(CCn2c(Sc3cc4c(cc3Br)OCCO4)nc3c(N)ncnc32)CC1 [compound 7, 8-[(7-Bromo-2,3-dihydro-1,4-benzodioxin-6-yl)thio]-9-(2-{1-[(2R)-2-methoxypropanoyl]piperidin-4-yl}ethyl)-9H-purin-6-amine]	95 nM	–
Nc1ncnc2c1nc(Sc1cc3c(cc1Br)OCCO3)n2CCC1CCN(C(=O)C2CC2(F)F)CC1 (stereo not shown) [compound 8, 8-[(7-Bromo-2,3-dihydro-1,4-benzodioxin-6-yl)thio]-9-(2-{1-[(2,2-difluorocyclopropyl)carbonyl]piperidin-4-yl}ethyl)-9H-purin-6-amine]	90 nM	–
CS(=O)(=O)N1CCCCC1CCn1c(Sc2cc3c(cc2Br)OCCO3)nc2c(N)ncnc21 (stereo not shown) [compound 10, 8-[(7-Bromo-2,3-dihydro-1,4-benzodioxin-6-yl)thio]-9-{2-[1-(methylsulfonyl)piperidin-2-yl]ethyl}-9H-purin-6-amine]	160 nM	–
CS(=O)(=O)N1CCCC(CCn2c(Sc3cc4c(cc3Br)OCCO4)nc3c(N)ncnc32)C1 (stereo not shown) [compound 12, 8-[(7-Bromo-2,3-dihydro-1,4-benzodioxin-6-yl)thio]-9-{2-[1-(methylsulfonyl)piperidin-3-yl]ethyl}-9H-purin-6-amine]	65 nM	–
CS(=O)(=O)N1CCCC(CCn2cnc(N)c3nc(Sc4cc5c(cc4Br)OCCO5)nc2-3)C1 (stereo not shown) [compound 13, 8-[(7-Bromo-2,3-dihydro-1,4-benzodioxin-6-yl)thio]-3-{2-[1-(methylsulfonyl)piperidin-3-yl]ethyl}-3H-purin-6-amine]	–	38.0%
CCCN1CCCCC1CCn1cnc(N)c2nc(Sc3cc4c(cc3Br)OCCO4)nc1-2 (stereo not shown) [compound 16, 8-[(7-Bromo-2,3-dihydro-1,4-benzodioxin-6-yl)thio]-3-[2-(1-propylpiperidin-2-yl)ethyl]-3H-purin-6-amine]	–	73.0%
CS(=O)(=O)N1CCC(CCn2cnc(N)c3nc(Sc4cc5c(cc4Br)OCCO5)nc2-3)CC1 [compound 17, 8-[(7-Bromo-2,3-dihydro-1,4-benzodioxin-6-yl)thio]-3-{2-[1-(methylsulfonyl)piperidin-4-yl]ethyl}-3H-purin-6-amine]	–	33.0%
COc1ccc(Br)c(Sc2nc3c(N)ncn(CCC4CCN(C(C)=O)CC4)c-3n2)c1 [compound 19, 3-[2-(1-Acetylpiperidin-4-yl)ethyl]-8-[(2-bromo-5-methoxyphenyl)thio]-3H-purin-6-amine]	–	10.0%
Cn1nnnc1N1CCC(CCn2cnc(N)c3nc(Sc4cc5c(cc4Br)OCCO5)nc2-3)CC1 [compound 22, 8-[(7-Bromo-2,3-dihydro-1,4-benzodioxin-6-yl)thio]-3-{2-[1-(1-methyl-1H-tetrazol-5-yl)piperidin-4-yl]ethyl}-3H-purin-6-amine]	–	46.0%
CC(C)C(=O)N1CCC(CCn2c(Sc3cc4c(cc3Br)OCCO4)nc3c(N)ncnc32)CC1 [compound 23, 8-[(7-Bromo-2,3-dihydro-1,4-benzodioxin-6-yl)thio]-9-[2-(1-isobutyrylpiperidin-4-yl)ethyl]-9H-purin-6-amine]	195 nM	–
CC(C)C(=O)N1CCC(CCn2cnc(N)c3nc(Sc4cc5c(cc4Br)OCCO5)nc2-3)CC1 [compound 24, 8-[(7-Bromo-2,3-dihydro-1,4-benzodioxin-6-yl)thio]-342-(1-isobutyrylpiperidin-4-ypethyl]-3H-purin-6-amine]	–	28.0%
CC(C)C(=O)N1CCC(CCn2c(Sc3cc4c(cc3Br)OCO4)nc3c(N)ncnc32)CC1 [compound 25, 8-[(6-Bromo-1,3-benzodioxol-5-yl)thio]-9-[2-(1-isobutyrylpiperidin-4-yl)ethyl]-9H-purin-6-amine]	110 nM	–
CC(C)C(=O)N1CCC(CCn2cnc(N)c3nc(Sc4cc5c(cc4Br)OCO5)nc2-3)CC1 [compound 26, 8-[(6-Bromo-1,3-benzodioxol-5-yl)thio]-3-[2-(1-isobutyrylpiperidin-4-yl)ethyl]-3H-purin-6-amine]	–	55.0%
CCN(CC)C(=O)CN1CCC(CCn2c(Sc3cc4c(cc3Br)OCCO4)nc3c(N)ncnc32)CC1 [compound 27, 2-[4-(2-{6-Amino-8-[(7-bromo-2,3-dihydro-1,4-benzodioxin-6-yl)thio]-9H-purin-9-yl}ethyl)piperidin-1-yl]-N,N-diethylacetamide]	110 nM	–
